Reference: patent publication US20250195510A1, “NOVEL METHODS” (priority 2022, published 2025)

Experiments:
Sprague-Dawley rats = test: Home cage feeding test (HCFT); assay type: in vivo, rat; conditions: naïve rats, Luma 1 mg/kg IP days 1 and 3; control 6.0
From the text: Novelty Suppressed Feeding Test (NSFT). This test measures consumption of a familiar food in a novel environment, relying on rodents' aversion to eating in a novel environment after a period of food deprivation ([…] and Dulawa, “Identifying fast-onset antidepressants using rodent models,” Mol. Psychiatry 22:656-665 (2017)). Rats are food-deprived overnight and placed in an open field (76.5×76.5×40 cm^3) with a small amount of food pellets (6 pellets total). At the time of the test, rats are exposed to the open field for the first time (novelty) and allowed to explore it for a maximum of 15 minutes under red light. The latency for the animal to approach the food pellets and take its first bite is manually scored. A home cage feeding test (HCFT) is performed afterwards to ensure latency measured in NSFT is not a matter of difference in hunger. A home cage food intake analysis evaluated the amount of food eaten (in grams) over a period of 10 minutes following the end of the entire test session.

[1] = test system: hippocampal gene expression (NanoString gene sets); test: NanoString nCounter hippocampal gene expression after coinjection of LPS and lumateperone; assay type: in vivo, mouse
From the text: NanoString. The mouse neuropathology panel includes 770 genes associated with themes of neurotransmission, neuron-glia interaction, neuroplasticity, cell structure integrity, neuroinflammation and metabolism. A total of 13 housekeeping genes are used for expression normalization (Aars: NM_146217.4, Asb10: NM_080444.4, Ccdc127: NM_024201.3, Cnot10: NM_153585.5, Csnk2a2: NM_009974.3, Fam104a: NM_138598.5, Gusb: NM_010368.1, Lars: NM_134137.2, Mtol: NM_026658.2, Supt7l: NM_028150.1, Tada2b: NM_001170454.1:3224, Tbp: NM_013684.3:70, and Xpnpepl: NM_133216.3:1826, see FIG. 1-1). Hippocampal RNA is extracted using the Qiagen microkit (Qiagen) and is evaluated by the Agilent 2100 Bioanalyzer (Agilent Technologies, Santa Clara, CA) to assess RNA concentration, quality, and integrity. Sample preparation, hybridization, and detection (100 ng per sample, n=5-6 per group) are carried out according to NanoString manufacturer's instructions (NanoString Technologies, Seattle, WA). The normalized data are transformed to log 2 score to express the fold change. NanoString results (raw and normalized counts) are derived from RCC files using the nSolver software (version 2.6; NanoString Technologies). A complementary gene software analysis tool, ROSALIND® Advanced Analysis Software (NanoString Technologies), is also used, which provides comprehensive free cloud-based data analysis for nCounter data by directly analyzing raw RCC files generated from NanoString. Data are imported into ROSALIND® Advanced Analysis Software for normalization, calculation of fold-changes, P values, identification of enriched pathways, and heatmaps.
The NanoString platform has been effectively used to quantitatively measure in vivo gene expression of target genes in several neuropathological mouse models.
It is calculated similarly to a unidirected global significance score, but it takes into account the sign of the t-statistic. Scores were calculated by nSolver software, using the control group as a reference.
Next, using ROSALIND® Advanced Analysis Software and a filter set to P<.

[2] = Inflammation gene, LPS 500 μg/kg + Luma 3 mg/kg, 2 h
[3] = Microglia gene, LPS 500 μg/kg + Luma 3 mg/kg, 2 h
[4] = Neuroprotect gene, LPS 500 μg/kg + Luma 3 mg/kg, 2 h

Question: What does the source list for `CN1CCN2c3c(cccc31)[C@@H]1CN(CCCC(=O)c3ccc(F)cc3)CC[C@@H]12` [Lumateperone, 4-((6bR,10aS)-3-methyl-2,3,6b,9,10,10a-hexahydro-1H-pyrido[3′,4′: 4,5]pyrrolo[1,2,3-de]quinoxaline-8 (7H)-yl)-1-(4-fluorophenyl)-1-butanone]?
Answer: Control HCFT food eaten (Sprague-Dawley rats): 6.0 g; Casp4 hippocampal expression, Log2, LPS + Luma vs LPS [1, 2]: −2.24; Ccr2 hippocampal expression, Log2, LPS + Luma vs LPS [1, 2]: −1.71; Ikbkb hippocampal expression, Log2, LPS + Luma vs LPS [1, 2]: −0.132; Il1b hippocampal expression, Log2, LPS + Luma vs LPS [1, 2]: −1.42; Il1r1 hippocampal expression, Log2, LPS + Luma vs LPS [1, 2]: −0.309; Lrg1 hippocampal expression, Log2, LPS + Luma vs LPS [1, 2]: −1.67; Ly6a hippocampal expression, Log2, LPS + Luma vs LPS [1, 2]: −0.925; Myd88 hippocampal expression, Log2, LPS + Luma vs LPS [1, 2]: −0.433; Nfkb2 hippocampal expression, Log2, LPS + Luma vs LPS [1, 2]: −0.972; Osmr hippocampal expression, Log2, LPS + Luma vs LPS [1, 2]: −1.21; Socs3 hippocampal expression, Log2, LPS + Luma vs LPS [1, 2]: −1.57; Tnfrsf1a hippocampal expression, Log2, LPS + Luma vs LPS [1, 2]: −0.434; Tnfrsf1b hippocampal expression, Log2, LPS + Luma vs LPS [1, 2]: −0.31; Directed global significance score vs control group, gene set Oligodendrocyte function ([1]; LPS 500 μg/kg + Luma 3 mg/kg coinjected, 2 h, LPS alone 0.181): 0.48; Directed global significance score vs control group, gene set Insulin signaling ([1]; LPS 500 μg/kg + Luma 3 mg/kg coinjected, 2 h, LPS alone 0.28): 0.809; Directed global significance score vs control group, gene set Epigenetic regulation ([1]; LPS 500 μg/kg + Luma 3 mg/kg coinjected, 2 h, LPS alone 0.312): 0.892; Directed global significance score vs control group, gene set Microglia function ([1]; LPS 500 μg/kg + Luma 3 mg/kg coinjected, 2 h, LPS alone 0.377): 0.915; Directed global significance score vs control group, gene set Cellular stress ([1]; LPS 500 μg/kg + Luma 3 mg/kg coinjected, 2 h, LPS alone 0.499): 0.813; Directed global significance score vs control group, gene set Carbohydrate metabolism ([1]; LPS 500 μg/kg + Luma 3 mg/kg coinjected, 2 h, LPS alone 0.507): 0.668; Directed global significance score vs control group, gene set Adaptive immune response ([1]; LPS 500 μg/kg + Luma 3 mg/kg coinjected, 2 h, LPS alone 0.571): 0.938; Directed global significance score vs control group, gene set DNA damage ([1]; LPS 500 μg/kg + Luma 3 mg/kg coinjected, 2 h, LPS alone 0.578): 0.042; Directed global significance score vs control group, gene set Autophagy ([1]; LPS 500 μg/kg + Luma 3 mg/kg coinjected, 2 h, LPS alone 0.588): 0.548; Directed global significance score vs control group, gene set Growth factor signaling ([1]; LPS 500 μg/kg + Luma 3 mg/kg coinjected, 2 h, LPS alone 0.76): 0.698; Directed global significance score vs control group, gene set Notch ([1]; LPS 500 μg/kg + Luma 3 mg/kg coinjected, 2 h, LPS alone 0.876): 1.05; Directed global significance score vs control group, gene set Apoptosis ([1]; LPS 500 μg/kg + Luma 3 mg/kg coinjected, 2 h, LPS alone 0.915): −0.453; Directed global significance score vs control group, gene set Innate immune response ([1]; LPS 500 μg/kg + Luma 3 mg/kg coinjected, 2 h, LPS alone 0.939): −0.655; Directed global significance score vs control group, gene set Cytokine signaling ([1]; LPS 500 μg/kg + Luma 3 mg/kg coinjected, 2 h, LPS alone 0.993): −0.599; Directed global significance score vs control group, gene set Inflammatory signaling ([1]; LPS 500 μg/kg + Luma 3 mg/kg coinjected, 2 h, LPS alone 1.086): −0.93; Directed global significance score vs control group, gene set NF-kB ([1]; LPS 500 μg/kg + Luma 3 mg/kg coinjected, 2 h, LPS alone 1.215): −0.689; Directed global significance score vs control group, gene set Astrocyte function ([1]; LPS 500 μg/kg + Luma 3 mg/kg coinjected, 2 h, LPS alone 1.391): −0.308; Directed global significance score vs control group, gene set Angiogenesis ([1]; LPS 500 μg/kg + Luma 3 mg/kg coinjected, 2 h, LPS alone −0.144): 0.891; Directed global significance score vs control group, gene set Cell cycle ([1]; LPS 500 μg/kg + Luma 3 mg/kg coinjected, 2 h, LPS alone −0.148): 0.385; Directed global significance score vs control group, gene set Lipid metabolism ([1]; LPS 500 μg/kg + Luma 3 mg/kg coinjected, 2 h, LPS alone −0.192): 0.89; Directed global significance score vs control group, gene set Neurons and neurotransmission ([1]; LPS 500 μg/kg + Luma 3 mg/kg coinjected, 2 h, LPS alone −0.422): 0.979; Directed global significance score vs control group, gene set Wnt ([1]; LPS 500 μg/kg + Luma 3 mg/kg coinjected, 2 h, LPS alone −0.476): 1.186; Directed global significance score vs control group, gene set Matrix remodeling ([1]; LPS 500 μg/kg + Luma 3 mg/kg coinjected, 2 h, LPS alone −0.583): 0.447; genes that promote inflammation (e.g., Osmr, Tnfrsf1a, Tnfrsf11b, Prl, Il1r1), ROSALIND analysis ([1]; LPS+Luma versus LPS alone, filter P<.04999): significantly downregulates; Directed global significance score vs control group, gene set Adaptive immune response ([1]; Luma alone): 0.344; Directed global significance score vs control group, gene set Angiogenesis ([1]; Luma alone): 0.616; Directed global significance score vs control group, gene set Apoptosis ([1]; Luma alone): −0.442; Directed global significance score vs control group, gene set Astrocyte function ([1]; Luma alone): −0.837; Directed global significance score vs control group, gene set Autophagy ([1]; Luma alone): −0.731; Directed global significance score vs control group, gene set Carbohydrate metabolism ([1]; Luma alone): −0.837; Directed global significance score vs control group, gene set Cell cycle ([1]; Luma alone): −0.75; Directed global significance score vs control group, gene set Cellular stress ([1]; Luma alone): −0.432; Directed global significance score vs control group, gene set Cytokine signaling ([1]; Luma alone): −0.543; Directed global significance score vs control group, gene set DNA damage ([1]; Luma alone): −0.614; Directed global significance score vs control group, gene set Epigenetic regulation ([1]; Luma alone): 0.729; Directed global significance score vs control group, gene set Growth factor signaling ([1]; Luma alone): 0.226; Directed global significance score vs control group, gene set Inflammatory signaling ([1]; Luma alone): −1.032; Directed global significance score vs control group, gene set Innate immune response ([1]; Luma alone): −0.611; Directed global significance score vs control group, gene set Insulin signaling ([1]; Luma alone): 0.858; Directed global significance score vs control group, gene set Lipid metabolism ([1]; Luma alone): −0.818; Directed global significance score vs control group, gene set Matrix remodeling ([1]; Luma alone): −0.4; Directed global significance score vs control group, gene set Microglia function ([1]; Luma alone): 0.466; Directed global significance score vs control group, gene set NF-kB ([1]; Luma alone): −0.499; Directed global significance score vs control group, gene set Neurons and neurotransmission ([1]; Luma alone): 0.435; Directed global significance score vs control group, gene set Notch ([1]; Luma alone): 0.834; Directed global significance score vs control group, gene set Oligodendrocyte function ([1]; Luma alone): −1.176; Directed global significance score vs control group, gene set Wnt ([1]; Luma alone): 0.9; Cd36 hippocampal expression, Log2, LPS + Luma vs LPS [1, 3]: 0.332; Cx3cr1 hippocampal expression, Log2, LPS + Luma vs LPS [1, 3]: 0.231; Maff hippocampal expression, Log2, LPS + Luma vs LPS [1, 3]: 1.21; P2ry12 hippocampal expression, Log2, LPS + Luma vs LPS [1, 3]: 0.14; Ptgs2 hippocampal expression, Log2, LPS + Luma vs LPS [1, 3]: −0.358; Tmem100 hippocampal expression, Log2, LPS + Luma vs LPS [1, 3]: 0.186; Tmem144 hippocampal expression, Log2, LPS + Luma vs LPS [1, 3]: 0.227; Cldn5 hippocampal expression, Log2, LPS + Luma vs LPS [1, 4]: 0.812; Egr1 hippocampal expression, Log2, LPS + Luma vs LPS [1, 4]: 0.87; Fos hippocampal expression, Log2, LPS + Luma vs LPS [1, 4]: 2.27; Ngf hippocampal expression, Log2, LPS + Luma vs LPS [1, 4]: 0.126; Vegfa hippocampal expression, Log2, LPS + Luma vs LPS [1, 4]: 0.227
